Key:
[1] = tested on: HCT116 colorectal cancer cells xenografts; assay: In vivo antitumor activity, HCT116 xenografts (Efficacy Example 2); set-up: species or system BALB/C nude mice; details: 1a 10 mg/kg ip × 7, qod, 5-Fluorouracil 15 mg/kg ip × 7
Excerpt: (§1) Experimental Method: The test animals were male SPF-grade BALB/C nude mice weighing 18 to 20 grams.
(§2) Experimental Procedure: Well-grown HCT116 colorectal cancer tumor masses were cut into uniform small pieces of approximately 3 mm in size under aseptic conditions. A cannula needle was used to inoculate one piece subcutaneously into the right axilla of each test mouse. Nine days after inoculation, the average tumor volume was approximately 113 to 119 mm^3. The animals were then regrouped based on tumor size, eliminating those with excessively large or small tumors, to ensure that the average tumor volume was consistent among the experimental groups. Administration by intraperitoneal injection was then initiated according to the following protocol, with a dosing volume of 0.2 mL per 20 grams of body weight:
(§3) From the 9th day of inoculation, the maximum tumor length (a, in mm) and the perpendicular maximum tumor width (b, in mm) were measured twice a week using a digital electronic caliper.
(§4) The tumor volume (TV) was calculated using the formula: TV=ab^2/2.
(§5) The relative tumor volume (RTV) was calculated using the formula: RTV=Vt/Vo, where Vo is the tumor volume measured at the time of cage distribution (i.e., day 1) and Vt is the tumor volume at each subsequent measurement.
(§6) On the 27th day after inoculation (day 19), the animals were euthanized, weighed, dissected to remove the tumor masses, and the tumor weights were measured.

[2] = tested on: HCT116 colorectal cancer cells xenografts; assay: In vivo antitumor activity, HCT116 xenografts (Efficacy Example 3); set-up: species or system BALB/C nude mice; details: 1c 1 mg/kg iv × 7, qod, 5-Fluorouracil 15 mg/kg ip × 7; for Animal weight (After tumor removal): nude mice, HCT116 xenograft; for RTV (d18): relative tumor volume; for TGI (%): tumor volume inhibition
Excerpt: as §1, §2, §3, §4, §5, §6
This efficacy example employs the same test animals and experimental methods as Efficacy Example 2, with the only difference being that the average tumor volume was approximately 130 to 140 mm^3 on the 13th day after inoculation of HCT116 colorectal cancer tumor masses into the test mice. Subsequently, the animals were regrouped based on tumor size and administered the drug according to the same protocol as in Efficacy Example 2. The animals were euthanized on the 30th day after inoculation (i.e., day 18), and their body weights and tumor weights were measured after dissection.

[3] = tested on: human colorectal cancer cell line HCT116; assay: CCK-8 in vitro antitumor activity (Effect Example 1); format: cell-based; details: HCT-116, HCT116, CCK-8, 72 hours
Protocol: (§7) The CCK-8 method described in “Methods for New Drug Pharmacological Research” (edited by Lv Qiujun, 2007: 242-243) was adopted.
(§8) The cell lines used were human lung adenocarcinoma cell line A549 and human colorectal cancer cell line HCT116, which were cryopreserved and passaged in the pharmacological laboratory of the Shanghai Institute of Pharmaceutical Industry. The culture medium was DMEM supplemented with 10% FBS and antibiotics.
(§9) Cells in logarithmic growth phase were seeded into 96-well plates at a density of 7×10^3 cells per well and incubated at 37° C. in a 5% CO2 environment for 24 hours to maintain a normal physiological pH.
(§10) After cell attachment, different concentrations of the test compounds, namely the bufalin derivatives 1a to 1l prepared in Example 1, as well as the compound doxorubicin, were added to triplicate wells, with 0.1% DMSO added as a control.
(§11) After 72 hours, 10 μL of CCK-8 cell counting kit was added to each well, and the plates were incubated again at 37° C. for 0.5 to 1 hour. The absorbance (OD) was read at 450 nm on a full-featured microplate reader (Biotek Synergy H2), and the concentration causing 50% cell growth inhibition (IC50) was calculated by simulation using GraphPad Prism software.

[4] = tested on: human lung adenocarcinoma cell line A549; assay: as above; format: cell-based; details: A549, CCK-8, 72 hours
Protocol: as §7, §8, §9, §10, §11

95D cells = assay: Cell scratch test, migration of 95D cells; format: cell-based, human; details: different concentrations, FIG. 1 and FIG. 2
Protocol: Test Method: Draw three parallel lines with a spacing of approximately 0.5 cm on the outer bottom surface of a 6-well plate. After evenly seeding the tumor cells 95D onto the plate (5×10^5 cells/well), create a cell scratch using a pipette. Wash the cells three times with phosphate-buffered saline (PBS) to remove the scratched-off cells. Then, add medium that has been pre-mixed with different concentrations of compound 1a or 1b.
Place the plate in a 37° C., 5% CO2 incubator for culturing. Sample the cells at 0, 12, 24, 36, and 48 hours, and take photographs under a microscope.
Using ImageJ software, measure the area and height of the scratch site. The average scratch width can be obtained by dividing the area by the height. Subtract the scratch width at the end of the experiment from the scratch width at the 0-hour point to obtain the distance of cell migration. Then, use this distance value to calculate the cell migration index (MI) according to the following formula:
Cell Migration Index(MI)=(Initial Blank Width−Blank Width at a Specific Time Point)/Initial Blank Width.

hERG potassium channel = hERG potassium channel (Homo sapiens, UniProt Q12809); details: test concentration 30 μM
hERG potassium channel, sequence (Q12809 whole entry): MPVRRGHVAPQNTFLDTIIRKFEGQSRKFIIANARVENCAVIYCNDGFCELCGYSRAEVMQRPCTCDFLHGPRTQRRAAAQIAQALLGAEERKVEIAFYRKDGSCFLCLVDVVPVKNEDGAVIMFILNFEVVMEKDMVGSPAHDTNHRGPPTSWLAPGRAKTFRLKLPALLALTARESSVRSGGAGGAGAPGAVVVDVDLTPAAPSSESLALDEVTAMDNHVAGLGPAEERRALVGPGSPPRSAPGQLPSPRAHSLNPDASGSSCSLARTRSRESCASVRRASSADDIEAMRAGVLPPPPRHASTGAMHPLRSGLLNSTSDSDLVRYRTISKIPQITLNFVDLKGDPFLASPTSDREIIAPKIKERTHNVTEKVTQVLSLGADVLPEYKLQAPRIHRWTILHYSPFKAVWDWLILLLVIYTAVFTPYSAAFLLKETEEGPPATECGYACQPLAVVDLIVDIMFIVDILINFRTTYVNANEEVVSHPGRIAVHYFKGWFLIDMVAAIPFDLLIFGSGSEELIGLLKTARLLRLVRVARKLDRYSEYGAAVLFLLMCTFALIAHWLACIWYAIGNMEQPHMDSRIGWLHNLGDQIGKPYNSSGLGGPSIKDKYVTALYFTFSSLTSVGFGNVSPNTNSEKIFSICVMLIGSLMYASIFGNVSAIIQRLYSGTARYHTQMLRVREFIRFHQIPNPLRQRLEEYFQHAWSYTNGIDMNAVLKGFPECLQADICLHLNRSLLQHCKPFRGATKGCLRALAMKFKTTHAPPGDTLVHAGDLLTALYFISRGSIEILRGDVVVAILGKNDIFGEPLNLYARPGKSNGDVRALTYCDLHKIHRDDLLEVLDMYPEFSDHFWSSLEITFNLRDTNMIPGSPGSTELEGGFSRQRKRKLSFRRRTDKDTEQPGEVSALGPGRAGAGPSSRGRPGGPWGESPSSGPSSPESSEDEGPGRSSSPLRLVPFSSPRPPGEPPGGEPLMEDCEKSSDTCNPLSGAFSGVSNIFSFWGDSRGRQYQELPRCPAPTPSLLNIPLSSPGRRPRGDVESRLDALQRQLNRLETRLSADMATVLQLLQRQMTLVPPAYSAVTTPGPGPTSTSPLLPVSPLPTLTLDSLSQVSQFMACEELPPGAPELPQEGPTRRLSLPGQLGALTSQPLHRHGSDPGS
Protocol: Experimental Method: CHO-hERG cells were cultured in a 175 cm^2 flask until the cell density reached 60 to 80%. The culture medium was then removed, and the cells were washed once with 7 mL of Phosphate Buffered Saline (PBS). Subsequently, 3 mL of gentle cell detachment solution (Detachin) was added for digestion. Once the digestion was complete, 7 mL of culture medium was added to neutralize the solution. The cells were then centrifuged, and the supernatant was aspirated. To ensure a cell density of 2 to 5×10^6/mL, 5 mL of culture medium was added to resuspend the cells.
The entire process of forming single-cell high-impedance seals and whole-cell recording mode was automatically completed by the high-throughput, fully automated patch clamp system, namely the Qpatch instrument. After obtaining the whole-cell recording mode, the cells were clamped at −80 mV. Prior to applying a 5-second+40 mV depolarization stimulus, a 50-millisecond −50 mV prepulse was given, followed by a repolarization to −50 mV for 5 seconds, and then returning to −80 mV This voltage stimulus was applied every 15 seconds. After recording for 2 minutes, the extracellular solution was recorded for 5 minutes, and then the drug administration process began.
These stock solutions were then diluted 500-fold with extracellular solution to obtain the final concentrations required for testing.

[5] = tested on: Human lung adenocarcinoma cells A549; assay: CCK-8 in vitro antitumor activity (Table 5); format: cell-based; details: A549, CCK-8, 72 hours
Excerpt: (§12) Test Method: The CCK-8 method from “Methods for New Drug Pharmacological Research” edited by Lv Qiujun (2007: 242-243) was adopted.
(§13) Cell lines used: Human lung adenocarcinoma cells A549, human high-metastasis lung cancer cells 95D, and human colon cancer cells HCT116, which were cryopreserved and passaged by the Pharmacological Laboratory of the Shanghai Institute of Pharmaceutical Industry, were selected. The culture medium used was DMEM+10% FBS+antibiotics.
(§14) Cells in the logarithmic growth phase were taken and seeded into 96-well plates at a density of 7×10^3 cells per well. They were then incubated at 37° C. in a 5% CO2 environment for 24 hours to maintain a normal physiological pH.
(§15) After cell adhesion, different concentrations of the test compounds, namely the bufalin derivatives IVa to IVc prepared in Example 5, as well as the comparative compound doxorubicin, were added to three replicate wells, with 0.1% DMSO added to separate wells as a control.
(§16) After 72 hours, 10 μL of the CCK-8 cell counting kit was added to each well, and the plates were incubated again at 37° C. for 0.5 to 1 hour. The absorbance (OD) was read at 450 nm on a full-function microplate reader, Biotek Synergy H2, and the concentration causing 50% inhibition of cell growth (IC50) was calculated through simulation using GraphPad Prism software.

[6] = tested on: human colon cancer cells HCT116; assay: CCK-8 in vitro antitumor activity (Table 5); format: cell-based; details: for IC50: Homo sapiens, HCT-116, HCT116, CCK-8, 72 hours; for activity against HCT116 compared with doxorubicin: HCT116, versus doxorubicin
Excerpt: as §12, §13, §14, §15, §16

[7] = tested on: human high-metastasis lung cancer cells 95D; assay: CCK-8 in vitro antitumor activity (Table 5); format: cell-based; details: for IC50: Homo sapiens, CCK-8, 72 hours
Excerpt: as §12, §13, §14, §15, §16

## O=c1[nH]cc(F)c(=O)[nH]1 [5-Fluorouracil, reference compound]
[1]; nude mice, HCT116 xenograft
  Animal weight (After tumor removal): 19.20 ± 1.84 g
[1]; relative tumor volume, d18
  RTV (d18): 5.52 ± 0.81
[1]; tumor volume inhibition
  TGI (%): 56.16%
[2]
  Animal weight (After tumor removal): 21.84 ± 1.52 g
  RTV (d18): 7.35 ± 1.55
  TGI (%): 59.37%

## CCOP(=O)(CCN1CCC(NC(=O)O[C@H]2CC[C@@]3(C)[C@H](CC[C@@H]4[C@@H]3CC[C@]3(C)[C@@H](c5ccc(=O)oc5)CC[C@]43O)C2)CC1)OCC [Compound 1b]
[3]
  IC50: < 0.004 µM
[4]
  IC50: < 0.004 µM
95D cells
  inhibitory effect on the migration of 95D cells: excellent anti-tumor migration effects

## CCOP(=O)(CCCN1CCC(NC(=O)O[C@H]2CC[C@@]3(C)[C@H](CC[C@@H]4[C@@H]3CC[C@]3(C)[C@@H](c5ccc(=O)oc5)CC[C@]43O)C2)CC1)OCC [Compound 1c]
[3]
  IC50: < 0.004 µM
[4]
  IC50: < 0.004 µM
[2]
  Animal weight (After tumor removal): 21.02 ± 3.08 g
  RTV (d18): 6.56 ± 1.79
  TGI (%): 63.69%
hERG potassium channel
  Inhibition rate (hERG potassium channel): 53.8±4.13%

## CCOP(=O)(CN1CCC(NC(=O)O[C@H]2CC[C@@]3(C)[C@H](CC[C@@H]4[C@@H]3CC[C@]3(C)[C@@H](c5ccc(=O)oc5)CC[C@]43O)C2)CC1)OCC [Compound 1d]
[3]
  IC50: 0.024 µM
[4]
  IC50: 0.037 µM

## CCCOP(=O)(CN1CCC(NC(=O)O[C@H]2CC[C@@]3(C)[C@H](CC[C@@H]4[C@@H]3CC[C@]3(C)[C@@H](c5ccc(=O)oc5)CC[C@]43O)C2)CC1)OCCC [Compound 1e]
[3]
  IC50: 0.022 µM
[4]
  IC50: 0.058 µM

## C[C@]12CC[C@H](OC(=O)NC3CCN(CP(=O)(OC4CCC4)OC4CCC4)CC3)C[C@H]1CC[C@@H]1[C@@H]2CC[C@]2(C)[C@@H](c3ccc(=O)oc3)CC[C@]12O [Compound 1f]
[3]
  IC50: 0.067 µM
[4]
  IC50: 0.026 µM

## C[C@]12CC[C@H](OC(=O)NC3CCN(CP(=O)(OC4CCCC4)OC4CCCC4)CC3)C[C@H]1CC[C@@H]1[C@@H]2CC[C@]2(C)[C@@H](c3ccc(=O)oc3)CC[C@]12O [Compound 1g]
[3]
  IC50: 0.289 µM
[4]
  IC50: 0.422 µM

## C[C@]12CC[C@H](OC(=O)NC3CCN(CP(=O)(OC4CCCCC4)OC4CCCCC4)CC3)C[C@H]1CC[C@@H]1[C@@H]2CC[C@]2(C)[C@@H](c3ccc(=O)oc3)CC[C@]12O [Compound 1h]
[3]
  IC50: 0.336 µM
[4]
  IC50: 0.023 µM

## CC(C)OP(=O)(CN1CC[C@@H](NC(=O)O[C@H]2CC[C@@]3(C)[C@H](CC[C@@H]4[C@@H]3CC[C@]3(C)[C@@H](c5ccc(=O)oc5)CC[C@]43O)C2)[C@H](O)C1)OC(C)C [Compound 1i]
[3]
  IC50: 0.008 µM
[4]
  IC50: 0.015 µM

## CC(C)OP(=O)(CNC1CCN(C(=O)O[C@H]2CC[C@@]3(C)[C@H](CC[C@@H]4[C@@H]3CC[C@]3(C)[C@@H](c5ccc(=O)oc5)CC[C@]43O)C2)CC1)OC(C)C [Compound 1j]
[3]
  IC50: 0.02 µM
[4]
  IC50: 0.216 µM

## CO[C@H]1CN(C(=O)O[C@H]2CC[C@@]3(C)[C@H](CC[C@@H]4[C@@H]3CC[C@]3(C)[C@@H](c5ccc(=O)oc5)CC[C@]43O)C2)CC[C@H]1NCP(=O)(OC(C)C)OC(C)C [Compound 1k]
[3]
  IC50: 0.143 µM
[4]
  IC50: 0.239 µM

## CC(C)OP(=O)(CNC1CCN(C(=O)O[C@H]2CC[C@@]3(C)[C@H](CC[C@@H]4[C@@H]3CC[C@]3(C)[C@@H](c5ccc(=O)oc5)CC[C@]43O)C2)CC1F)OC(C)C (some centres unmarked) [Compound 1l]
[3]
  IC50: 0.12 µM
[4]
  IC50: 0.283 µM

## COc1cccc2c1C(=O)c1c(O)c3c(c(O)c1C2=O)C[C@@](O)(C(=O)CO)C[C@@H]3O[C@H]1C[C@H](N)[C@H](O)[C@H](C)O1 [Doxorubicin, reference compound]
[3]
  IC50: 0.054 µM
[4]
  IC50: 0.92 µM
[5]
  IC50: 0.008 µM
[6]
  IC50: 0.019 µM
[7]
  IC50: 0.115 µM

## CC(C)OP(=O)(CN1CCN(C(=O)O[C@H]2CC[C@@]3(C)C(CCC4C3CC[C@]3(C)[C@@H](c5ccc(=O)oc5)CC[C@]43O)C2)CC1)OC(C)C (some centres unmarked) [IVa]
[5]
  IC50: 0.019 µM
[6]
  IC50: 0.117 µM
[7]
  IC50: 0.574 µM

## CCOP(=O)(CN1CCN(C(=O)O[C@H]2CC[C@@]3(C)C(CCC4C3CC[C@]3(C)[C@@H](c5ccc(=O)oc5)CC[C@]43O)C2)CC1)OCC (some centres unmarked) [IVb]
[5]
  IC50: 0.018 µM
[6]
  activity against HCT116 compared with doxorubicin: comparable activity against HCT116 to doxorubicin
  IC50: 0.04 µM
[7]
  IC50: 0.262 µM

## CCOP(=O)(CCCN1CCN(C(=O)O[C@H]2CC[C@@]3(C)C(CCC4C3CC[C@]3(C)[C@@H](c5ccc(=O)oc5)CC[C@]43O)C2)CC1)OCC (some centres unmarked) [IVc]
[5]
  IC50: 0.011 µM
[6]
  activity against HCT116 compared with doxorubicin: comparable activity against HCT116 to doxorubicin
  IC50: 0.027 µM
[7]
  IC50: 0.072 µM
[7]; versus doxorubicin
  activity against 95D compared with doxorubicin: superior activity against 95D compared to doxorubicin

From patent US20250205258A1 (priority 2022, published 2025)
